Source: PubChem BioAssay AID1963974 (Molecular Pharmacology Branch, DTP, NCI, 2024)

System: 648629-189-R-J1-PDC spheroids with HUVEC/MSC, viability
Experiment: Anticancer human tumor 648629-189-R-J1-PDC patient-derived bladder carcinoma cell line growth inhibition [PI3K]
Conditions: for IC50: curve of first compound; for viability, T/C: stronger effect = lower value; active = viability on the fitted dose curve at most 10% of control; inactive = the rest
Excerpt: Combinatorial screen of targeted agents with the PI3K inhibitors inavolisib, alpelisib, duvelisib, and copanlisib in multi-cell type tumor spheroids
A high-throughput screen of multi-cell type tumor spheroids was designed to identify active combinations of targeted small molecules and PI3K pathway inhibitors. Complex spheroids include a stromal component modeled by human endothelial cells (HUVEC) and fibroblasts modeled by human mesenchymal stem cells (MSCs). The concentration ranges selected for each drug and investigational agent were based upon clinically achievable concentrations if the clinical Cmax of the agent was known.
Compounds. The drugs and investigational agents: inavolisib (NSC800729), alpelisib (NSC765974), duvelisib (NSC772469), copanlisib (NSC816437), ipatasertib (NSC767898), afuresertib (NSC778305), talazoparib (NSC767125), sapanisertib (NSC764658), selumetinib (NSC741078), tovorafenib (DAY101, NSC766906), vemurafenib (NSC761431), ravoxertinib (NSC781343), sotorasib (NSC818433), MRTX1133 (NSC 836407), abemaciclib (NSC 768073), palbociclib (NSC758247), venetoclax (NSC 766270), SY5609 (NSC837396), enzalutamide (NSC755605), and darolutamide (NSC825331), were obtained from the National Cancer Institute (NCI) Developmental Therapeutics Program Chemical Repository. The FDA-approved anticancer drug set is available from the NCI Developmental Therapeutics Program. […] The stock solutions were prepared in dimethyl sulfoxide (DMSO, Sigma-Aldrich, St. Louis, MO, cat. D2650) at 800-fold the tested concentration and stored at -70 degrees C prior to their use. All drugs and investigational agents were tested over a range starting from a high concentration at or near the clinical Cmax and decreasing in half-log increments. If the clinical Cmax for an agent had not been determined, the highest concentration tested was 10 microM.
Cell Culture. All cells were maintained in an incubator at 37 degrees C and 5% CO2 with 95% humidity. The PDC lines were cultured according to standard operating procedures established by the NCI PDMR (https://pdmr.cancer.gov/sops/default.htm). All PDCs were thawed and cultured in Matrigel-coated flasks prepared with a working solution of 1X Ham's F-12 nutrient mix, without supplementation (Invitrogen, Waltham, MA, cat. 11765054), 100 U/mL penicillin-streptomycin (Invitrogen, cat. 15140122), and 2.5% Matrigel (Corning Inc., Corning, NY, cat. 354248) for the first three passages. The 354836-022-R-J1-PDC, 475296-252-R-J1-PDC, and 997726-040-R-J2-PDC lines were cultured in 6A media, which includes advanced DMEM/F-12 (Thermo Fisher Scientific, cat. 12634028), 10 mM HEPES (Thermo Fisher Scientific, cat. 15630080), 1X GlutaMAX supplement (Thermo Fisher Scientific, cat. 35050061), 0.1 mg/mL primocin (InvivoGen, San Diego, CA, cat. ant-pm-2), 10% defined fetal bovine serum, heat inactivated (HyClone Laboratories Inc., Logan, UT, cat. SH30070.03HI), 50% L-WRN conditioned media (ATCC, cat. CRL-3276), 1.25 mM N-Acetyl-L-cysteine (Sigma-Aldrich, cat. A9165), 10 mM nicotinamide (Sigma-Aldrich, cat. N0636), 1X B-27 supplement (Thermo Fisher Scientific, cat. 17504044), 1X N-2 supplement (Thermo Fisher Scientific, cat. 17502048), and 10 microM Y-27632 dihydrochloride (Tocris Bioscience, Bristol, United Kingdom, cat. 1254). The 624824-186-R-J2-PDC line was cultured in 6C/Colon 1B media, which includes all 6A media components plus 50 ng/mL human EGF recombinant protein (Thermo Fisher Scientific, cat. PHG0311). […]

[1] = second compound 0.00316 µM, first compound 0.000316 µM
[2] = second compound 0.00316 µM, first compound 0.001 µM
[3] = second compound 0.00316 µM, first compound 0.00316 µM
[4] = second compound 0.00316 µM, first compound 0.01 µM
[5] = second compound 0.00316 µM, first compound 0.0316 µM
[6] = second compound 0.00316 µM, first compound 0.1 µM
[7] = second compound 0.01 µM, first compound 0.000316 µM
[8] = second compound 0.01 µM, first compound 0.001 µM
[9] = second compound 0.01 µM, first compound 0.00316 µM
[10] = second compound 0.01 µM, first compound 0.01 µM
[11] = second compound 0.01 µM, first compound 0.0316 µM
[12] = second compound 0.01 µM, first compound 0.1 µM
[13] = second compound 0.0316 µM, first compound 0.000316 µM
[14] = second compound 0.0316 µM, first compound 0.001 µM
[15] = second compound 0.0316 µM, first compound 0.00316 µM
[16] = second compound 0.0316 µM, first compound 0.01 µM
[17] = second compound 0.0316 µM, first compound 0.0316 µM
[18] = second compound 0.0316 µM, first compound 0.1 µM
[19] = second compound 0.1 µM, first compound 0.000316 µM
[20] = second compound 0.1 µM, first compound 0.001 µM
[21] = second compound 0.1 µM, first compound 0.00316 µM
[22] = second compound 0.1 µM, first compound 0.01 µM
[23] = second compound 0.1 µM, first compound 0.0316 µM
[24] = second compound 0.1 µM, first compound 0.1 µM
[25] = second compound 0.316 µM, first compound 0.000316 µM
[26] = second compound 0.316 µM, first compound 0.001 µM
[27] = second compound 0.316 µM, first compound 0.00316 µM
[28] = second compound 0.316 µM, first compound 0.01 µM
[29] = second compound 0.316 µM, first compound 0.0316 µM
[30] = second compound 0.316 µM, first compound 0.1 µM
[31] = second compound 1 µM, first compound 0.000316 µM
[32] = second compound 1 µM, first compound 0.001 µM
[33] = second compound 1 µM, first compound 0.00316 µM
[34] = second compound 1 µM, first compound 0.01 µM
[35] = second compound 1 µM, first compound 0.0316 µM
[36] = second compound 1 µM, first compound 0.1 µM
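Also: spheroids exposed to agents for seven days before reading.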
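For viability, T/C in this document: percent of vehicle control luminescence where 100% = DMSO treated spheroids.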

CC(=O)c1c(C)c2cnc(Nc3ccc(N4CCNCC4)cn3)nc2n(C2CCCC2)c1=O + CC(Nc1ccc2c(c1)OCCn1cc(N3C(=O)OCC3C(F)F)nc1-2)C(N)=O
inactive: viability, T/C [1] 102% | viability, T/C [2] 103% | viability, T/C [3] 105% | viability, T/C [4] 95.5% | viability, T/C [5] 108% | viability, T/C [6] 112% | viability, T/C [7] 101% | viability, T/C [8] 103% | viability, T/C [9] 88% | viability, T/C [10] 99.4% | viability, T/C [11] 98.9% | viability, T/C [12] 104% | viability, T/C [13] 88.5% | viability, T/C [14] 105% | viability, T/C [15] 95.9% | viability, T/C [16] 99.9% | viability, T/C [17] 97.4% | viability, T/C [18] 96.4% | viability, T/C [19] 104% | viability, T/C [20] 92.1% | viability, T/C [21] 82.8% | viability, T/C [22] 88.3% | viability, T/C [23] 96.2% | viability, T/C [24] 102% | viability, T/C [25] 81.5% | viability, T/C [26] 87.2% | viability, T/C [27] 85% | viability, T/C [28] 82.4% | viability, T/C [29] 76.4% | viability, T/C [30] 94.5% | viability, T/C [31] 67% | viability, T/C [32] 65.7% | viability, T/C [33] 78.4% | viability, T/C [34] 80% | viability, T/C [35] 63.4% | viability, T/C [36] 71.2%
> 0.1 µM: IC50 (second compound 0.00316 µM) | IC50 (second compound 0.01 µM) | IC50 (second compound 0.0316 µM) | IC50 (second compound 0.1 µM) | IC50 (second compound 0.316 µM) | IC50 (second compound 1 µM)

CC(C)n1nc(-c2ccc3oc(N)nc3c2)c2c(N)ncnc21 + CC(Nc1ccc2c(c1)OCCn1cc(N3C(=O)OCC3C(F)F)nc1-2)C(N)=O
0.0125 µM: IC50 (second compound 1 µM)
0.0539 µM: IC50 (second compound 0.1 µM)
0.0613 µM: IC50 (second compound 0.00316 µM)
inactive: viability, T/C [1] 119% | viability, T/C [2] 100% | viability, T/C [3] 94.7% | viability, T/C [4] 90% | viability, T/C [5] 68.8% | viability, T/C [6] 36.2% | viability, T/C [7] 102% | viability, T/C [8] 92.2% | viability, T/C [9] 96.3% | viability, T/C [10] 95.5% | viability, T/C [11] 74.3% | viability, T/C [12] 30% | viability, T/C [13] 119% | viability, T/C [14] 103% | viability, T/C [15] 98.3% | viability, T/C [16] 80% | viability, T/C [17] 75.9% | viability, T/C [18] 32.6% | viability, T/C [19] 89.1% | viability, T/C [20] 94.9% | viability, T/C [21] 80.3% | viability, T/C [22] 82.9% | viability, T/C [23] 72.5% | viability, T/C [24] 25.3% | viability, T/C [25] 81.6% | viability, T/C [26] 73.3% | viability, T/C [27] 78.6% | viability, T/C [28] 74.6% | viability, T/C [29] 50.2% | viability, T/C [30] 24.8% | viability, T/C [31] 65.6% | viability, T/C [32] 63.1% | viability, T/C [33] 67.2% | viability, T/C [34] 48% | viability, T/C [35] 39.8% | viability, T/C [36] 17.9%
0.059 µM: IC50 (second compound 0.0316 µM)
0.0595 µM: IC50 (second compound 0.01 µM)
0.0318 µM: IC50 (second compound 0.316 µM)

CCCS(=O)(=O)Nc1ccc(F)c(C(=O)c2c[nH]c3ncc(-c4ccc(Cl)cc4)cc23)c1F + CC(Nc1ccc2c(c1)OCCn1cc(N3C(=O)OCC3C(F)F)nc1-2)C(N)=O
4.72 µM: IC50 (second compound 0.0316 µM)
5.51 µM: IC50 (second compound 0.01 µM)
4.48 µM: IC50 (second compound 0.316 µM)
3.55 µM: IC50 (second compound 1 µM)
5.19 µM: IC50 (second compound 0.00316 µM)
active: viability, T/C (second compound 0.00316 µM, first compound 10 µM) 0.36% | viability, T/C (second compound 0.01 µM, first compound 10 µM) 0.28% | viability, T/C (second compound 0.0316 µM, first compound 10 µM) 0.32% | viability, T/C (second compound 0.1 µM, first compound 10 µM) 2.36% | viability, T/C (second compound 0.316 µM, first compound 10 µM) 0.44% | viability, T/C (second compound 1 µM, first compound 10 µM) 0.54%
4.82 µM: IC50 (second compound 0.1 µM)
inactive: viability, T/C [5] 108% | viability, T/C [6] 105% | viability, T/C (second compound 0.00316 µM, first compound 0.316 µM) 105% | viability, T/C (second compound 0.00316 µM, first compound 1 µM) 106% | viability, T/C (second compound 0.00316 µM, first compound 3.16 µM) 87.5% | viability, T/C [11] 112% | viability, T/C [12] 91% | viability, T/C (second compound 0.01 µM, first compound 0.316 µM) 109% | viability, T/C (second compound 0.01 µM, first compound 1 µM) 129% | viability, T/C (second compound 0.01 µM, first compound 3.16 µM) 96.5% | viability, T/C [17] 104% | viability, T/C [18] 111% | viability, T/C (second compound 0.0316 µM, first compound 0.316 µM) 93.3% | viability, T/C (second compound 0.0316 µM, first compound 1 µM) 112% | viability, T/C (second compound 0.0316 µM, first compound 3.16 µM) 76.5% | viability, T/C [23] 98.3% | viability, T/C [24] 92.3% | viability, T/C (second compound 0.1 µM, first compound 0.316 µM) 97.9% | viability, T/C (second compound 0.1 µM, first compound 1 µM) 98.9% | viability, T/C (second compound 0.1 µM, first compound 3.16 µM) 77.3% | viability, T/C [29] 94.5% | viability, T/C [30] 83.4% | viability, T/C (second compound 0.316 µM, first compound 0.316 µM) 88.1% | viability, T/C (second compound 0.316 µM, first compound 1 µM) 84.5% | viability, T/C (second compound 0.316 µM, first compound 3.16 µM) 71.9% | viability, T/C [35] 63.8% | viability, T/C [36] 60.6% | viability, T/C (second compound 1 µM, first compound 0.316 µM) 65.8% | viability, T/C (second compound 1 µM, first compound 1 µM) 64.9% | viability, T/C (second compound 1 µM, first compound 3.16 µM) 55.2%
